The values that follow come from patent US20240199585A1, “SOLID FORMS OF (3R)-N-[2-CYANO-4-FLUORO-3-(3-METHYL-4-OXO-QUINAZOLIN-6-YL)OXY-PHENYL]-3-FLUORO-PYRROLIDINE-1-SULFONAMIDE” (Hoffmann-La Roche Inc., priority 2021, published 2024).

Series [1] is described as follows: Moisture sorption/desorption (dynamic vapour sorption, DVS). The conditions noted are these: for Masschange (DVS): from 0%-90% RH; for Hygroscopicity: increase in mass from 0%-RH to 90%-RH. It is filed as physicochemical. Here is the method: Moisture sorption/desorption data was collected on a DVS Advantage, a DVS Adventure, or a DVS Intrinsic (SMS Surface Measurements Systems) moisture balance system. The sorption/desorption isotherms were measured stepwise in a range from 0%-RH to 90%-RH at typically 25° C. A weight change of typically <0.001%/min was chosen as criterion to switch to the next level of relative humidity (with a maximum equilibration time of typically 24 hours, if the weight change criterion was not met). The data were corrected for the initial moisture content of the samples by taking the weight after drying of the samples at 0%-RH as zero point.
The hygroscopicity of a given substance was characterized (by close analogy with the European Pharmacopoeia) by the increase in mass when the relative humidity was raised from 0%-RH to 90%-RH: […]

A short description of series [2]: High humidity storage experiments. It is filed as physicochemical.
The conditions of series [3]: cited from earlier work.

In the case of `Cn1cnc2ccc(Oc3c(F)ccc(NS(=O)(=O)N4CC[C@@H](F)C4)c3C#N)cc2c1=O` [amorphous form, (3R)-N-[2-cyano-4-fluoro-3-(3-methyl-4-oxo-quinazolin-6-yl)oxy-phenyl]-3-fluoro-pyrrolidine-1-sulfonamide], in series [1], the “Masschange (DVS)” value was around 3.8% and the Hygroscopicity result is “hygroscopic (weight increase 2.0% ≤ Dm < 15.0%)”. Also, in series [2], the “Solid form stability in high humidity storage” value was “Recrystallization to Form A”.

With `CCCS(=O)(=O)Nc1ccc(F)c(C(=O)c2c[nH]c3ncc(-c4ccc(Cl)cc4)cc23)c1F` [Vemurafenib], the brain permeability result in series [3] is listed as “very poor”.

In the case of `Cn1cnc2ccc(Oc3c(F)ccc(NS(=O)(=O)N4CC[C@@H](F)C4)c3C#N)cc2c1=O` [polymorphic form A, (3R)-N-[2-cyano-4-fluoro-3-(3-methyl-4-oxo-quinazolin-6-yl)oxy-phenyl]-3-fluoro-pyrrolidine-1-sulfonamide], in series [1], the “Masschange (DVS)” value is below 0.2% and the Hygroscopicity entry was “not hygroscopic”. Moreover, the “Solid form change during the DVS cycle” value in series [1] (sorption/desorption cycle 0%-90% RH) is “no solid form change”.

As to `COC(=O)N[C@@H](C)CNc1nccc(-c2cn(C(C)C)nc2-c2cc(Cl)cc(NS(C)(=O)=O)c2F)n1` [Encorafenib], the brain permeability entry in series [3] was “very poor”.

Regarding `CC(C)(C)c1nc(-c2cccc(NS(=O)(=O)c3c(F)cccc3F)c2F)c(-c2ccnc(N)n2)s1` [Dabrafenib], in series [3], the brain permeability entry was “very poor”.
